The results in this text go back to patent US20240025918A1, “KRAS G12D Inhibitors” (Jacobio Pharmaceuticals Co., Ltd, priority 2020, published 2024).

One assay has as its system AGS. As to the kind of experiment: Cell growth inhibition assay, AGS (CellTiter-Glo). It counts as cell-based. The settings on record: Homo sapiens, 144 h; AGS cell viability, 6 days incubation.
For assay [1], the system named is AGS cells expressing KRAS G12D. The assay is described as follows: Phospho-ERK1/2(THR202/TYR204) HTRF assay. It counts as cell-based. The settings on record: Homo sapiens; Phospho-ERK1/2 in AGS cells, 2 hours incubation. An outline of the steps:
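Cells seeded 40,000/well, incubated overnight, then treated with compound in F12K with 0.1% FBS for 2 h at 37 °C. Lysates assayed for phospho-ERK1/2 by HTRF after 4 h at 25 °C; IC50 from 4-parameter logistic fit.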

For the next assay, the system named is AsPC-1. As to the kind of experiment: Cell growth inhibition assay, AsPC-1 (CellTiter-Glo). It counts as cell-based. The settings on record: Homo sapiens, ASPC1, 144 h; AsPC-1 cell viability, 6 days incubation. Background: ATP-based viability assays read luminescence as a measure of living cells.
In assay [2] the target is T1, GppNp-loaded HIS-KRAS(G12D, aa 1-169) and cRAF RBD (Homo sapiens, UniProt P01116, G12D).
T1 construct: GppNp-loaded HIS-KRAS(G12D, aa 1-169)
T1 sequence (P01116 1-169 isoform P01116-2 G12D): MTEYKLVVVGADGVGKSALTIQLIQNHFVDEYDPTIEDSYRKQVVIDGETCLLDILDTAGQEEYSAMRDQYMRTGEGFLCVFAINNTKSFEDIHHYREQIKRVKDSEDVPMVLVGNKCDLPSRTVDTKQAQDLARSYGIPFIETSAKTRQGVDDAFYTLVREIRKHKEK
The assay is described as follows: GTP-KRAS and cRAF interaction assay (HTRF). It counts as biochemical. As to conditions: 2 hours at 25° C. On the technique in general: TR-FRET usually uses a lanthanide donor and a delayed reading to cut background.

The target of assay [3] is T2, GDP-loaded HIS-KRAS(G12D, aa 1-169) (Homo sapiens, UniProt P01116, G12D).
T2 construct: GDP-loaded HIS-KRAS(G12D, aa 1-169)
T2 sequence (P01116 1-169 isoform P01116-2 G12D): as above
The assay is described as follows: SOS1 catalyzed nucleotide exchange assay (TR-FRET). The settings on record: 4 hours at 25° C. It counts as biochemical.

What is called IC50 is the concentration at which inhibition is half-maximal. On to `C#Cc1cccc2cc(O)cc(-c3c(F)cc4c(N5CC6CCC(C5)N6)nc(OCC5(CN6CC7(CCCCO7)C6)CC5)nc4c3F)c12` [Compound 48], for which the IC50 in the assay with AGS is 36.4 nM; in assay [1] it was 38.6 nM; in the assay on AsPC-1 it was 315 nM; in assay [2], 118 nM; in assay [3] it was 1.49 nM.

In the case of `C#Cc1cccc2cc(O)cc(-c3c(F)cc4c(N5CC6CCC(C5)N6)nc(OCC5(CN6C[C@@H]7OCCO[C@@H]7C6)CC5)nc4c3F)c12` [Compound 50], the IC50 in the assay on AGS was 3.49 nM; in assay [1] it was 9.39 nM; in the assay on AsPC-1, 70 nM; in assay [2], 42.5 nM; in assay [3], 1.39 nM.

For `C#Cc1cccc2cc(O)cc(-c3c(F)cc4c(N5CC6CCC(C5)N6)nc(OCC5(CN6C7CCC6CC(=O)C7)CC5)nc4c3F)c12` [Compound 51], the IC50 stood at 1.25 nM in the assay on AGS; 12.1 nM in assay [1]; 66 nM in the assay with AsPC-1; 59.4 nM in assay [2]; 1.26 nM in assay [3].

`C#Cc1cccc2cc(O)cc(-c3c(F)cc4c(N5CC6CCC(C5)N6)nc(OCC5(CN6CCc7sccc7C6)CC5)nc4c3F)c12` [Compound 52]: the 50% inhibitory concentration (IC50) in the assay with AGS is 32.4 nM; in assay [1], 271 nM; in the assay on AsPC-1, 93 nM; in assay [2], 286 nM; in assay [3], 4.26 nM.

On to `C#Cc1cccc2cc(O)cc(-c3c(F)cc4c(N5CC6CCC(C5)N6)nc(OCC5(CN6CCC7(CCOCC7)C6)CC5)nc4c3F)c12` [Compound 55], for which the IC50 in the assay with AGS is 7.71 nM; in assay [1], 5.39 nM; in the assay with AsPC-1, 77 nM; in assay [2], 23.1 nM; in assay [3] it was 1.37 nM.

Turning to `C#Cc1cccc2cc(O)cc(-c3c(F)cc4c(N5CC6CCC(C5)N6)nc(OCC5(CN6CC7(CCO7)C6)CC5)nc4c3F)c12` [Compound 56], the IC50 in the assay with AGS worked out at 14.9 nM; in assay [1], 7.66 nM; in the assay on AsPC-1, 182 nM; in assay [2], 53.2 nM; in assay [3], 2.05 nM.
